{
  "source": "patent US20240148821A1",
  "about": "“PHARMACEUTICAL USE OF CYCLIC PEPTIDE COMPOUND” (CHUGAI SEIYAKU KABUSHIKI KAISHA, priority 2021, published 2024)",
  "note": "Numbered stars: 1 amine (or outer) side, 2 acyl side, 3 side chain; on linkers, the order of the positions; unused ones are H or OH. Bridge positions count the residues as written; N and C are the ends. Square brackets hold non-standard residues; d marks the D form. Peptide text beside a SMILES is read from it. * marks the point of attachment. hPhe(3-Cl-4-CF3) = N[C@@H](CCc1ccc(C(F)(F)F)c(Cl)c1)C(=O)O; X27 = CN([C@@H](Cc1ccc(C(F)(F)F)nc1)C(=O)[*:2])[*:1]; Thiomorpholino(1,1-dioxo) = O=S1(=O)CCN(*)CC1; NMeNle(6-CHF2) = CN[C@@H](CCCCC(F)F)C(=O)O; NMePhe(4-F) = CN[C@@H](Cc1ccc(F)cc1)C(=O)O; NMeGly(cPent) = CN[C@H](C(=O)O)C1CCCC1; Phe(3-I) = N[C@@H](Cc1cccc(I)c1)C(=O)O; NMeY = CN[C@@H](Cc1ccc(O)cc1)C(=O)O; NMeCha = CN[C@@H](CC1CCCCC1)C(=O)O; NMeChg = CN[C@H](C(=O)O)C1CCCCC1; NMeF = CN[C@@H](Cc1ccccc1)C(=O)O; NMeD = CN[C@@H](CC(=O)O)C(=O)O; NMeL = CN[C@@H](CC(C)C)C(=O)O; NMeV = CN[C@H](C(=O)O)C(C)C; d(β3hA) = C[C@@H](N)CC(=O)O; N(iPr)Gly = CC(C)NCC(=O)O; NMeS = CN[C@@H](CO)C(=O)O; Morpholide = C1CN(*)CCO1; NMeA = CN[C@@H](C)C(=O)O; NMeAib = CNC(C)(C)C(=O)O; Piperidide = C1CCN(*)CC1; Pra = C#CC[C@H](N)C(=O)O; dNMeA = CN[C@H](C)C(=O)O; Ac5c = NC1(C(=O)O)CCCC1; Aze = O=C(O)[C@@H]1CCN1; X113 = Fc1cncc(C*)c1; Sar = CNCC(=O)O",
  "data": [
    {"test_system": "Human pancreatic cancer cell line AsPC-1 (G12D mutation Kras)", "assay": "AsPC-1 cell growth inhibition (AsPC-1 CGI)", "format": "cell-based", "conditions": "read-out: AsPC-1 cell growth inhibition, 50% growth inhibitory concentration (IC50 value); 96 hours, CellTiter-Glo, values classified in ranges", "units": {"IC50": "nM"}, "description": "Test compounds were serially dilated with dimethyl sulfoxide, and 200 nL was then dispensed to a U-bottom 96-well plate using Labcyte Echo. […] The cell suspension was dispensed to a. plate containing a test compound at 100 μL per well and incubated at 37° C. in a 5% carbon dioxide gas incubator. 96 hours later, 80 μL of CellTiter-Glo (Promega) was added to each well and fluorescence was measured.", "values": [
      {"compound": "CC[C@H](C)[C@@H]1NC(=O)[C@H](CC(C)C)N(C)C(=O)C[C@@H](C(=O)N2CCCCC2)N(C)C(=O)[C@H](C2CCCCC2)N(C)C(=O)C2(CCCC2)NC(=O)[C@H](Cc2ccc(C(F)(F)F)nc2)N(C)C(=O)[C@H](CCc2ccc(C(F)(F)F)c(Cl)c2)NC(=O)CN(C)C(=O)[C@H](CC2CCCCC2)N(C)C(=O)[C@@H]2CCN2C(=O)CN(C)C1=O", "note": "[Compound 6] ([NMeL]I[Sar][Aze][NMeCha][Sar][hPhe(3-Cl-4-CF3)][X27][Ac5c][NMeChg][NMeD]-Piperidide; lactam N-11)", "IC50": "> 500"},
      {"compound": "CC[C@H](C)[C@@H]1NC(=O)[C@H](CC(C)C)N(C)C(=O)C[C@@H](C(=O)N2CCCCC2)N(C)C(=O)[C@H](C2CCCCC2)N(C)C(=O)C2(CCCC2)NC(=O)[C@H](COCc2cncc(F)c2)N(C)C(=O)[C@H](CCc2ccc(C(F)(F)F)c(Cl)c2)NC(=O)CN(C)C(=O)[C@H](CC2CCCCC2)N(C)C(=O)CN(C)C(=O)CN(C)C1=O", "note": "[Compound 950] ([NMeL]I[Sar][Sar][NMeCha][Sar][hPhe(3-Cl-4-CF3)][NMeS](X113)[Ac5c][NMeChg][NMeD]-Piperidide; lactam N-11)", "IC50": "> 500"},
      {"compound": "CC[C@H](C)[C@@H]1NC(=O)[C@H](CC(C)C)N(C)C(=O)C[C@@H](C(=O)N2CCS(=O)(=O)CC2)N(C)C(=O)[C@H](C2CCCCC2)N(C)C(=O)C2(CCCC2)NC(=O)[C@@H]2CCCN2C(=O)[C@H](CCc2ccc(C(F)(F)F)c(Cl)c2)NC(=O)CN(C)C(=O)[C@H](CC2CCCCC2)N(C)C(=O)CN(C)C(=O)CN(C)C1=O", "note": "[Compound 1263] ([NMeL]I[Sar][Sar][NMeCha][Sar][hPhe(3-Cl-4-CF3)]P[Ac5c][NMeChg][NMeD]-{Thiomorpholino(1,1-dioxo)}; lactam N-11)", "IC50": "> 500"},
      {"compound": "C#CC[C@@H]1NC(=O)[C@H](Cc2cccc(I)c2)NC(=O)CN(C)C(=O)[C@H](Cc2ccc(OC)cc2)N(C)C(=O)[C@@H]2CCN2C(=O)[C@H](C)N(C)C(=O)[C@H]([C@@H](C)CC)NC(=O)[C@H](CC(C)C)N(C)C(=O)C[C@@H](C(=O)N2CCCCC2)N(C)C(=O)[C@H](CC(C)C)NC(=O)C(C)(C)N(C)C1=O", "note": "[Compound 1350] ([NMeL]I[NMeA][Aze][NMeY](Me)[Sar][Phe(3-I)][Pra][NMeAib]L[NMeD]-Piperidide; lactam N-11)", "IC50": "> 500"},
      {"compound": "CC[C@H](C)[C@@H]1NC(=O)[C@H](C)N(C)C(=O)C[C@@H](C(=O)N2CCOCC2)N(C)C(=O)[C@H](C(C)C)N(C)C(=O)C2(CCCC2)NC(=O)[C@@H]2CCCN2C(=O)[C@H](CCc2ccc(C(F)(F)F)c(Cl)c2)NC(=O)[C@@H](C)N(C)C(=O)[C@H](CC2CCCCC2)N(C)C(=O)[C@@H]2CCCN2C(=O)CN(C)C1=O", "note": "[Compound 1788] ([NMeA]I[Sar]P[NMeCha][dNMeA][hPhe(3-Cl-4-CF3)]P[Ac5c][NMeV][NMeD]-Morpholide; lactam N-11)", "IC50": "> 500"},
      {"compound": "CC[C@H](C)[C@@H]1NC(=O)[C@H](C)N(C)C(=O)C[C@@H](C)NC(=O)[C@H](C(C)C)N(C)C(=O)C2(CCCC2)NC(=O)[C@@H]2CCCN2C(=O)[C@H](CCc2ccc(C(F)(F)F)c(Cl)c2)NC(=O)[C@H]2CCCN2C(=O)[C@H](Cc2ccccc2)N(C)C(=O)[C@@H]2CCCN2C(=O)CN(C)C1=O", "note": "[Compound 1730] (cyclo([Ac5c][NMeV][d(β3hA)][NMeA]I[Sar]P[NMeF][dP][hPhe(3-Cl-4-CF3)]P))", "IC50": "> 500"},
      {"compound": "CC[C@H](C)[C@@H]1NC(=O)[C@H](C)N(C)C(=O)C[C@@H](C)NC(=O)[C@H](C2CCCC2)N(C)C(=O)C2(CCCC2)NC(=O)[C@@H]2CCCN2C(=O)[C@H](CCc2ccc(C(F)(F)F)c(Cl)c2)NC(=O)[C@@H](C)N(C)C(=O)[C@H](Cc2ccc(F)cc2)N(C)C(=O)[C@@H]2CCN2C(=O)[C@H](C)N(C)C1=O", "note": "[Compound 584] (cyclo([Ac5c][NMeGly(cPent)][d(β3hA)][NMeA]I[NMeA][Aze][NMePhe(4-F)][dNMeA][hPhe(3-Cl-4-CF3)]P))", "IC50": "> 500"},
      {"compound": "CC[C@H](C)[C@@H]1NC(=O)[C@H](CC(C)C)N(C)C(=O)C[C@@H](C(=O)N2CCCCC2)N(C)C(=O)[C@H](CCCCC(F)F)N(C)C(=O)C2(CCCC2)NC(=O)[C@@H]2CCCN2C(=O)[C@H](CCc2ccc(C(F)(F)F)c(Cl)c2)NC(=O)CN(C)C(=O)[C@H](CC2CCCCC2)N(C)C(=O)CN(C)C(=O)CN(C)C1=O", "note": "[Compound 653] ([NMeL]I[Sar][Sar][NMeCha][Sar][hPhe(3-Cl-4-CF3)]P[Ac5c][NMeNle(6-CHF2)][NMeD]-Piperidide; lactam N-11)", "IC50": "> 500"},
      {"compound": "CC[C@H](C)[C@@H]1NC(=O)[C@H](CC(C)C)N(C)C(=O)C[C@@H](C)NC(=O)[C@H](C(C)C)N(C)C(=O)C2(CCCC2)NC(=O)[C@@H]2CCCN2C(=O)[C@H](CCc2ccc(C(F)(F)F)c(Cl)c2)NC(=O)CN(C)C(=O)[C@H](CC2CCCCC2)N(C)C(=O)CN(C)C(=O)CN(C(C)C)C1=O", "note": "[Compound 305] (cyclo([Ac5c][NMeV][d(β3hA)][NMeL]I[N(iPr)Gly][Sar][NMeCha][Sar][hPhe(3-Cl-4-CF3)]P))", "IC50": "> 500"},
      {"compound": "CC[C@H](C)[C@@H]1NC(=O)[C@H](CC(C)C)N(C)C(=O)C[C@@H](C(=O)N(C)C)N(C)C(=O)[C@H](C2CCCC2)N(C)C(=O)C2(CCCC2)NC(=O)[C@@H](C)NC(=O)[C@H](CCc2ccc(C(F)(F)F)c(Cl)c2)NC(=O)CN(C)C(=O)[C@H](CC2CCCCC2)N(C)C(=O)[C@@H]2CCN2C(=O)[C@H](C)N(C)C1=O", "note": "[Compound 191] ([NMeL]I[NMeA][Aze][NMeCha][Sar][hPhe(3-Cl-4-CF3)][dA][Ac5c][NMeGly(cPent)][NMeD]-NMe2; lactam N-11)", "IC50": "> 500"}
    ]}
  ]
}
